Columns and labels:
U87 cells = test: Matrigel invasion analysis; type: cell-based, human; settings: U87, 6.25 and 12.5 μM, 24 h, vs negative control
Method: The analysis was completed with U87 and HeLa cell lines to assess the metastatic potential of tumor cells using transwell inserts with an 8 μm pore size polycarbonate membrane (Corning Costar, Cambridge, MA, USA) coated with 1/5 of Matrigel (Beckton Dickinson, Bedford, MA, USA) and air-dried at room temperature. After seeding the U87 and HeLa cell lines (3 × 10^5cells/insert), the complex concentrations were selected as 6.25 or 12.5 μM and incubated at 37°C in a humidified incubator with 5% CO2 for 24 h. The cell monolayers in the transwell inserts were fixed with ice-cold methanol and stained with 0.05% crystal violet for the analysis. The invasion of the cells to the basolateral side of the inserts was investigated using a light microscope with 40× magnification.

HeLa cells = test: In vitro comet assay; type: cell-based, human; settings: 25 and 50 μM, 24 h
Method: Commet assay was performed with U87 and HeLa cell lines (4 × 10^4 cells/well) to detect DNA damage in the individual eukaryotic cells, where 25 or 50 μM Cu(II) or Pt(II) complexes were added to the cells and incubated for 24 h. Subsequently, the comet assay was performed as described before.[31] The DNA damage was evaluated by calculating the DNA tail percentage using the following equation: DNA tail % = 100× tailing DNA density/cell DNA density. The assay was repeated twice, and 50 individual cells were involved for each treatment.

SMILES | anti-invasive effect (U87 cells) | genotoxicity (DNA damage, comet) (HeLa cells)
[Cl][Cu][Cl].c1ccc(-c2nc3ccc(-c4ccc5nc(-c6ccccn6)c(-c6ccccn6)nc5c4)cc3nc2-c2ccccn2)nc1 [Cu(tpbq)Cl2] | did not have any anti-invasive effect | –
[Cl][Cu][Cl].c1csc(-c2nc3ccc(-c4ccc5nc(-c6cccs6)c(-c6cccs6)nc5c4)cc3nc2-c2cccs2)c1 [Cu(ttbq)Cl2] | – | only genotoxic on the Hela cells at a high concentration (50 μM)
